US9422255B2, “S-imino-S-oxo-iminothiazine compounds as BACE inhibitors, compositions, and their use” (Merck Sharp & Dohme Corp., priority 2013, dated 2016)

Legend:
[1] = target: soluble human BACE1 catalytic domain (Homo sapiens (Human), UniProt P56817); experiment: BACE1 HTRF FRET Assay; assay type: biochemical; settings: Ki calculated from IC50 using the Cheng-Prusoff equation; QSY7-APPswe-Eu substrate, pH 5.0; read-out: BACE 1 Ki
Source text: Na^+-Acetate pH 5.0; 1% Brij-35; Glycerol; Dimethyl Sulfoxide (DMSO); Recombinant human soluble BACE1 catalytic domain (>95% pure); APP Swedish mutant peptide substrate (QSY7-APP^swe-Eu): QSY7-EISEVNLDAEFC-Europium-amide.
A homogeneous time-resolved FRET assay can be used to determine IC50 values for inhibitors of the soluble human BACE1 catalytic domain. This assay monitors the increase of 620 nm fluorescence that resulted from BACE1 cleavage of an APPswedish APP^swe mutant peptide FRET substrate (QSY7-EISEVNLDAEFC-Europium-amide). This substrate contains an N-terminal QSY7 moiety that serves as a quencher of the C-terminal Europium fluorophore (620 nm Em). In the absence of enzyme activity, 620 nm fluorescence is low in the assay and increased linearly over 3 hours in the presence of uninhibited BACE1 enzyme Inhibition of BACE1 cleavage of the QSY7-APP^swe-Eu substrate by inhibitors is manifested as a suppression of 620 nm fluorescence.
Varying concentrations of inhibitors at 3× the final desired concentration in a volume of 10 ul are preincubated with purified human BACE1 catalytic domain (3 nM in 10 μl) for 30 minutes at 30° C. in reaction buffer containing 20 mM Na-Acetate pH 5.0, 10% glycerol, 0.1% Brij-35 and 7.5% DSMO. […]

[2] = target: purified human autoBACE-2 (Homo sapiens, UniProt Q9Y5Z0); experiment: BACE-2 Assay (BACE-HTRF assay); assay type: biochemical; settings: Ki calculated from IC50 using the Cheng-Prusoff equation; QSY7-EISEVNLDAEFC-Eu-amide substrate, pH 5.0
Method: Inhibitor IC50s at purified human autoBACE-2 are determined in a time-resolved endpoint proteolysis assay that measures hydrolysis of the QSY7-[…]-Eu-amide FRET peptide substrate (BACE-HTRF assay). […] DMSO is present at 5% final concentration in the assay. Following laser excitation of sample wells at 320 nm, the fluorescence signal at 620 nm is collected for 400 ms following a 50 μs delay on a RUBYstar HTRF plate reader (BMG Labtechnologies). Raw RFU data is normalized to maximum (1.0 nM BACE/DMSO) and minimum (no enzyme/DMSO) RFU values. […] The Ki values are calculated from the IC50 using the Cheng-Prusoff equation.

Sequence of purified human autoBACE-2 (Q9Y5Z0 63-518 limits assumed): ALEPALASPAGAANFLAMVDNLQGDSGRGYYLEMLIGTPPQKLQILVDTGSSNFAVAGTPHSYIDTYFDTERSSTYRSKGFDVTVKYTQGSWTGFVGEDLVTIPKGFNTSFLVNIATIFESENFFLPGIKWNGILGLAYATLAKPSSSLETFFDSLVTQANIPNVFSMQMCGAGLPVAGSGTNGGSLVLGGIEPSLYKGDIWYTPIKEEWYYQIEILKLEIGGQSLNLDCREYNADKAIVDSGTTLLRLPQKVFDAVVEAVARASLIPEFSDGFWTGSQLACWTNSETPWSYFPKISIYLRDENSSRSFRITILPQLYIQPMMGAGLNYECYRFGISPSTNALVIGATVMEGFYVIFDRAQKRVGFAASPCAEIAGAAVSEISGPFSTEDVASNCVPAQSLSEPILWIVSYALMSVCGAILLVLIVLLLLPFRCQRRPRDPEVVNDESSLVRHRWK
Sequence of soluble human BACE1 catalytic domain (P56817 75-416): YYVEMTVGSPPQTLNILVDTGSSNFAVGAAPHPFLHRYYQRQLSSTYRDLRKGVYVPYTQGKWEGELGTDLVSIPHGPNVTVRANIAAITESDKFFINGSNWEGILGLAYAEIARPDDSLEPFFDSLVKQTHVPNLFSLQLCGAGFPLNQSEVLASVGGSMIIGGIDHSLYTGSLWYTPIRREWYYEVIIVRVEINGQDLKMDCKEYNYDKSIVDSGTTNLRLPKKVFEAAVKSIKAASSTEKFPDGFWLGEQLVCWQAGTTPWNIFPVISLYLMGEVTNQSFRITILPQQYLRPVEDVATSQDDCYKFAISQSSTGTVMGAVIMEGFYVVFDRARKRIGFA

Ki [1]: 290 nM
Ki [2]: 106 nM
SMILES: CN=S1(=O)C[C@@](C)(c2cc(NC(=O)c3ccc(Cl)cn3)ccc2F)NC(=N)[C@@]1(C)c1ccc(F)cc1 (some centres unmarked) [Example 10a]
